Data set [1] relates to rat spinal cord cultures. The data set can be described thus: Neuroprotection against substance P or glutamate toxicity in primary spinal cord cultures (LDH release). Type of data set: cell-based. As to conditions: for block of SP-induced toxicity: SP 30 μM, spantide II 100 μM, MK-801. Background: Release of lactate dehydrogenase indicates damage to the cell membrane.
Data set [2] concerns beagle dogs. It counts as in vivo. The settings on record: anesthetized dog, i.v. bolus 10 nmol/kg. The procedure:
Male beagle dogs were anesthetized with pentobarbital (35 mg/kg, i.v.) followed by constant i.v. infusion of pentobarbital (5 mg/kg/h). The animals were ventilated with room air by means of a mechanical respiration pump. Blood pressure was measured using a dual tip micromanometer catheter (Millar, Model SPC-770, 7F) inserted into the heart left ventricle via the carotid artery. Compounds were injected into the right femoral vein via catheter. Hemodynamic variables were computed using XYZ Real Time Spreadsheet software on a signal processing workstation (Modular Instruments, Inc.). Sixty minutes were allowed following surgery to achieve a steady-state baseline for the measured variables. Test compounds were administered by i.v. bolus (10 nmol/kg) and compared for their relative ability to elicit changes in blood pressure and heart rate over a five minute data collection period.

The subject of data set [3] is rats. As to the kind of experiment: Carrageenan paw edema model. Type of data set: in vivo. The settings on record: rat. (In general: Carrageenan injected into the paw causes an acute inflammation.)
In data set [4] the test system is rats. As to the kind of experiment: Paw Thermal Stimulator (Hotbox) Model. It counts as in vivo. The settings on record: rat, i.p., tested 0.62 to 6.2 μmol/kg. From the text: For assessing nociceptive responses to an acute thermal stimulus, a commercially available paw thermal stimulator was utilized (Anesthesiology Research Laboratory, Department of Anesthesiology, University of California at San Diego, La Jolla, Calif.). This device has been previously described (Dirig, D. M. and Yaksh, T. L., Pain, 62: 321-328, 1995) and is based on the initial work of Hargreaves et al. (Pain, 32: 77-88, 1988). Rats were placed in Plexiglas cubicles that were located on a glass surface of the apparatus. The surface of the glass was maintained at 30° C. A thermal stimulus was applied to the bottom of the rear foot of the rat via a movable focused projection bulb. The stimulus current was maintained at 4.8 Amps. The latency until the animal moved its foot from the stimulus was recorded automatically by use of photodiode motion sensors. In the current studies, a 20 second cut-off was employed to limit possible tissue damage following exposure to the stimulus.
All studies began with a 20 min acclimation period. Following the acclimation period, a baseline measure was determined for each animal. Following determination of baseline, treatments were administered and measures were taken at various time points following treatment (e.g., 15, 30, and 45 min). For clarity, data were collapsed over time for statistical analysis (unless otherwise noted).
Stock solutions of compounds were prepared in absolute ethanol at a concentration of 62 μmol/ml. From this, solutions were made with 10% ethanol, and dosed by injection i.p. Compounds were tested in the dose range of from 0.62 to 6.2 μmol/kg.
For measurements, the following protocol was utilized. Six animals were used in each run. For any given measure (e.g., time point), one foot of each of the 6 animals was tested and then the process was repeated for the opposite foot. Mean values for the response were then computed based on the two scores.

Data set [5] deals with T1, neuronal nicotinic acetylcholine receptors (Rattus norvegicus, UniProt P09483+P12390).
T1 construct: crude synaptic membrane preparations from whole rat brain; from tissue; host or cells: whole rat brain, crude synaptic membranes
T1 sequence (P09483 31-630): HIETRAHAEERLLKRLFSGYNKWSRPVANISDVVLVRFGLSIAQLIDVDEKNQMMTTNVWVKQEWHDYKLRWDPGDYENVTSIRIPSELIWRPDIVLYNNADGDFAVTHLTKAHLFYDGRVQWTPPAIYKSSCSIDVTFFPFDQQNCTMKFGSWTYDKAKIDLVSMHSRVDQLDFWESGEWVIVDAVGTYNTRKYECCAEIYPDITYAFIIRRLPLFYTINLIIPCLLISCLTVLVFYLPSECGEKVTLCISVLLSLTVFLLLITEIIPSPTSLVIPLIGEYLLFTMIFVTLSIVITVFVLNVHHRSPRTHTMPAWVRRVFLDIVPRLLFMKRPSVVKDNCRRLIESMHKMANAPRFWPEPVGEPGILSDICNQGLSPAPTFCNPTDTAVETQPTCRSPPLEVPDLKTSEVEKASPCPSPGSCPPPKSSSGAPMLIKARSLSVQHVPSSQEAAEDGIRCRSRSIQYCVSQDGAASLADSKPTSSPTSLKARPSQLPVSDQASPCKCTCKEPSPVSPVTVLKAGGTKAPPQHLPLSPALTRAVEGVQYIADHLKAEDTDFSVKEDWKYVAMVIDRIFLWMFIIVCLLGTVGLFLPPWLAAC
T1 sequence (P12390 25-500): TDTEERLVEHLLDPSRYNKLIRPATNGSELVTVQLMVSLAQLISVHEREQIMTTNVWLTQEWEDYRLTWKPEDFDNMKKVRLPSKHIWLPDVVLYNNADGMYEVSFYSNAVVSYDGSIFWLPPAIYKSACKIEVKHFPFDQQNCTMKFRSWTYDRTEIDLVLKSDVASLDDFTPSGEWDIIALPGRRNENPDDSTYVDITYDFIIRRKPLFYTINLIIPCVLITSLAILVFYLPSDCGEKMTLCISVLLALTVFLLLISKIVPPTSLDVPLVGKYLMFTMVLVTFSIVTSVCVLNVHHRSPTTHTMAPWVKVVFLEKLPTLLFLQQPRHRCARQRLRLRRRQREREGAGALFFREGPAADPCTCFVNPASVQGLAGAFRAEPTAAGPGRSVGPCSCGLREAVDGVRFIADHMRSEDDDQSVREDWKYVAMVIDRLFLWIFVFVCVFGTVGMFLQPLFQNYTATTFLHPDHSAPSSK
The data set can be described thus: [3H]-cytisine binding to neuronal nicotinic acetylcholine receptors, whole rat brain membranes. As to conditions: [3H]-cytisine 1.25 nM, whole rat brain membranes; read-out: [3H] CYT Ki. How it is done: Protocol for Determination of Nicotinic Acetylcholine Channel Receptor Binding Potencies of Ligands
Binding of [^3H]-cytisine ([^3H]-CYT) to neuronal nicotinic acetylcholine receptors was accomplished using crude synaptic membrane preparations from whole rat brain (Pabreza et al., Molecular Pharmacol., 1990, 39:9). Washed membranes were stored at −80° C. prior to use. Frozen aliquots were slowly thawed and resuspended in 20 volumes of buffer (containing: 120 mM NaCl, 5 mM KCl, 2 mM MgCl2, 2 mM CaCl2 and 50 mM Tris-Cl, pH 7.4 @4° C.). After centrifuging at 20,000×g for 15 minutes, the pellets were resuspended in 30 volumes of buffer. Homogenate (containing 125-150 μg protein) was added to triplicate tubes containing concentrations of test compound and [^3H]-CYT (1.25 nM) in a final volume of 500 μL. Samples were incubated for 60 minutes at 4° C., then rapidly filtered through Whatman GF/B filters presoaked in 0.5% polyethyleneimine using 3×4 mL of ice-cold buffer. The filters are counted in 4 mL of Ecolume® (ICN). Nonspecific binding was determined in the presence of 10 μM (−)-nicotine and values were expressed as a percentage of total binding.

Data set [6] deals with neuromuscular junction nicotinic acetylcholine receptor (Tetronarce californica, UniProt P02710+P02714+P02718). As to the kind of experiment: biochemical. Type of data set: binding, Torpedo Californica. The settings on record: read-out: Ki (nM) α-bungarotoxin.
Sequence of neuromuscular junction nicotinic acetylcholine receptor (P02714 18-506): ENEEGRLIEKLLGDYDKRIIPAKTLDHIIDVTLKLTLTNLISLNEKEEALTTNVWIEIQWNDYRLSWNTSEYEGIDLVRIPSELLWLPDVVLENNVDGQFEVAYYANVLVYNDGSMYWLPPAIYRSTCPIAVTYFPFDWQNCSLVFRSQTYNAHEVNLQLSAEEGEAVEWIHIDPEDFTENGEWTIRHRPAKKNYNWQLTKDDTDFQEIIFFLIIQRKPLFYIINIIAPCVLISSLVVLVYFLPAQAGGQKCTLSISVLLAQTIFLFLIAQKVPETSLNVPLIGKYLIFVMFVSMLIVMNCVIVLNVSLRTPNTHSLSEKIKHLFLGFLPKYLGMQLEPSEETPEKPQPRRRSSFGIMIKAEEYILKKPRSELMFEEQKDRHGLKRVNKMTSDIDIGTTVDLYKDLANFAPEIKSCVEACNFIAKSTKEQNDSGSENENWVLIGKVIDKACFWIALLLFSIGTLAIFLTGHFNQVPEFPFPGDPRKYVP
Sequence of neuromuscular junction nicotinic acetylcholine receptor (P02710 25-461): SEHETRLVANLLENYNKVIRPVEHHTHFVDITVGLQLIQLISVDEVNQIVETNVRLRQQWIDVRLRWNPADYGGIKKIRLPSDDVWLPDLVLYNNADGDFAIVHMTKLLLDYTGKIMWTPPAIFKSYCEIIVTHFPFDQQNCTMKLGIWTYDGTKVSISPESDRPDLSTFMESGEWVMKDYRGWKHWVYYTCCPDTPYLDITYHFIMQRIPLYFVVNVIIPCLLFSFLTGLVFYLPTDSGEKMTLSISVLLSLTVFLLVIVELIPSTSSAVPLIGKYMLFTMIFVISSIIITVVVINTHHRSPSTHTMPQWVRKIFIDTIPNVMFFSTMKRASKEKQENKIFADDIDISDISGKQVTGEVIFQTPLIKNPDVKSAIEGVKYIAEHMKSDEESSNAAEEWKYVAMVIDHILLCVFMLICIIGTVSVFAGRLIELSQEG
Sequence of neuromuscular junction nicotinic acetylcholine receptor (P02712 25-493, further chain): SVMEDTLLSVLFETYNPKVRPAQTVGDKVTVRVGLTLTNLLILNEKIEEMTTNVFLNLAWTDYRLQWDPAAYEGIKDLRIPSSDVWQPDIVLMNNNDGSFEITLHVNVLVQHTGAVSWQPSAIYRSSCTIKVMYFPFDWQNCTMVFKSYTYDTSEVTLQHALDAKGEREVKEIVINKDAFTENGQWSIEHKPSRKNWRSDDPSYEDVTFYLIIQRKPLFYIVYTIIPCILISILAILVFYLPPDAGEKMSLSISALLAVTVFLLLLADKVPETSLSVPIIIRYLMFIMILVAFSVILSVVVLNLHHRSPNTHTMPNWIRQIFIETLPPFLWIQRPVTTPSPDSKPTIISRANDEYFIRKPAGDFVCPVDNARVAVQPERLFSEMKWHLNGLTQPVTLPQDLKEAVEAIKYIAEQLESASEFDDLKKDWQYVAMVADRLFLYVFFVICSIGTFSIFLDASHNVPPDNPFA
Sequence of neuromuscular junction nicotinic acetylcholine receptor (P02718 22-522): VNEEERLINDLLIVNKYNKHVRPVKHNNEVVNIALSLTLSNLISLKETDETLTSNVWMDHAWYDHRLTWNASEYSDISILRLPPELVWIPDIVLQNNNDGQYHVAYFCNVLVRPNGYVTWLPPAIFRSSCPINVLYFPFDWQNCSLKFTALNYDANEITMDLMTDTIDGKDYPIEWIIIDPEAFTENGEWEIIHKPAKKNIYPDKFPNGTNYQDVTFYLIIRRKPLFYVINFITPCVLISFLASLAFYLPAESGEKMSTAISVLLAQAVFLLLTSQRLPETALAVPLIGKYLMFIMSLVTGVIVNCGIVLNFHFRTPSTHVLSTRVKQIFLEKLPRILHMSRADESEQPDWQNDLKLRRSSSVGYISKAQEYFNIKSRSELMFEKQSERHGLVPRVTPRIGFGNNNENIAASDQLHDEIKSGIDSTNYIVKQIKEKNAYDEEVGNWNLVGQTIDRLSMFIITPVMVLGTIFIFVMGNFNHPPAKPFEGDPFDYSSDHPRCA
For data set [7], the system named is rats. The data set can be described thus: Chung Model of Neuropathic Pain. Further details: key: NS = no significant effect observed relative to saline controls at the doses tested. Type of data set: in vivo. The settings on record: rat, 50% threshold to VonFrey hairs.
In data set [8] the test system is mice. As to the kind of experiment: Mouse Hot Plate Paradigm. Also noted: key to MED Hot plate model (μmol/kg, i.p.): NS = no significant effect observed relative to saline controls at the doses tested. As to conditions: 30 minutes prior to testing, 55° C.; for minimal effective dose: ip, 0.5 h, i.p., read-out: MED Hot plate model (μmol/kg, i.p.). It counts as in vivo.

The target of data set [9] is T2, peripheral ganglionic receptors (Homo sapiens, UniProt P30926+P32297).
T2 construct: Cells of the IMR-32 human neuroblastoma clonal cell line (ATCC, Rockville, Md.); host or cells: IMR-32 human neuroblastoma cells
T2 sequence (P32297 32-505): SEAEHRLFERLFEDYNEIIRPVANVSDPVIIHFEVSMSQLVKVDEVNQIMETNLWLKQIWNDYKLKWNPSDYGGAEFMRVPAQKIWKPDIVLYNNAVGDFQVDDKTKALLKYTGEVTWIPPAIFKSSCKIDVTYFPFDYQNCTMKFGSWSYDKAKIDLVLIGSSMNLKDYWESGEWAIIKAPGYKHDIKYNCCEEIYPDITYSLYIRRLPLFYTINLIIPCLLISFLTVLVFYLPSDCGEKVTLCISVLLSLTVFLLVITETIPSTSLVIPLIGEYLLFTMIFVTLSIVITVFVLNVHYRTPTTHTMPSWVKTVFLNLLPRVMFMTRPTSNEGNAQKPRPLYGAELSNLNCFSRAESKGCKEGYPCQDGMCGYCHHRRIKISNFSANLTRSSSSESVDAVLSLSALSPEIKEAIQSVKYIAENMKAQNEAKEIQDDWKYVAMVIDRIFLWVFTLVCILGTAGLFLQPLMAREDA
T2 sequence (P30926 22-498): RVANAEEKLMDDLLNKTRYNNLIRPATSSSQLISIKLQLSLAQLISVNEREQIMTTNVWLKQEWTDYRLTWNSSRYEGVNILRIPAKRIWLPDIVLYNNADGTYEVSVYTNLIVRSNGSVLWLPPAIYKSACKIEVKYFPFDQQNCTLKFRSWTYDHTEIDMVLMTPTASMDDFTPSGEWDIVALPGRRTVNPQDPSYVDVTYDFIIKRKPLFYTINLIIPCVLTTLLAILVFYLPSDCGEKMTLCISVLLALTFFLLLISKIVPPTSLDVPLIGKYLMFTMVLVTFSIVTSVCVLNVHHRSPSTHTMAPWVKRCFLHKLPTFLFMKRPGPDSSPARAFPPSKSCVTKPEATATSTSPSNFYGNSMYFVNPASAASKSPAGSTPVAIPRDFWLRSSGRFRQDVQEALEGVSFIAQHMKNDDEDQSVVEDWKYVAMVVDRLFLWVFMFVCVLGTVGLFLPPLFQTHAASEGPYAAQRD
As to the kind of experiment: 86Rb+ flux activation in IMR-32 human neuroblastoma cells. It counts as cell-based. As to conditions: 1 μM compound, % of maximum response to (S)-nicotine. The procedure: Protocol for the Determination of Ability of Nicotinic Acetylcholine Receptor Ligands to Activate Peripheral Ganglionic Receptors
Cells of the IMR-32 human neuroblastoma clonal cell line (ATCC, Rockville, Md.) were maintained in a log phase of growth according to established procedures. Experimental cells were seeded at a density of 500,000 cells/mL into a 24-well tissue culture dish. Plated cells were allowed to proliferate for at least 48 hours before loading with 2 μCi/mL of ^86Rb^+ (35 Ci/mmol) overnight at 37° C. The ^86Rb^+ efflux assays were performed according to previously published protocols (Lukas, R. J., J. Pharmacol. Exp. Ther., 265: 294-302, 1993) except serum-free Dulbecco's Modified Eagle's Medium was used during the ^86Rb^+ loading, rinsing, and agonist-induced efflux steps. Data reflect the activation of ^86Rb^+ flux at a concentration of 1 μM, and reflect the response as a percentage of the maximum response elicited by (S)-nicotine.

The mark [10] stands for this setting: mecamylamine 10 μM, MLA 10 nM, α-BTX 1 nM.

We go through 24 compounds from patent US6403575B1, “3-Pyridyl enantiomers and their use as analgesics” (Abbott Laboratories, priority 1996, dated 2002).

A word on the Ki: it is a measure of affinity in units of concentration, obtained from inhibition or displacement.

Where a name gives a salt, the structure may show the parent alone. Read-outs that look alike come from different tables or passages of the source.

Turning to spantide II, in [1], the “block of SP-induced toxicity” value is given as “blocked”.
Regarding `Clc1ccc(OC[C@H]2CCN2)cn1` [Example 1, 5-((2R)-Azetidinylmethoxy)-2-chloropyridine], in data set [2], the “Increase in Diastolic Blood Pressure (mm Hg)” value turned out to be 23.2 ± 4.6 mm Hg, the “Increase in Heart Rate (beats/min)” value was 7.8 ± 2.9 beats/min, the “blood pressure increase as fraction of that seen with Example 19” value is “⅓” and the “heart rate increase as fraction of that seen with Example 19” value is “⅓”.
For the compound `CNC1(C)C2CCC(C2)C1(C)C` (stereo not shown) [mecamylamine, reference compound], the “block of the neuroprotective effect by nicotinic antagonists” value (“block of the neuroprotective effect” below) in data set [1] (setting [10]) is “blocked”. Besides, the results for the “prevention of the paw edema effect of Example 4 by nicotinic antagonist” value in data set [3] and in [3] (listed as mecaamylamine) were “prevented” and “prevents this effect”, respectively.
On to `O=C1CCC(=O)N1CN1CC[C@@H]1COc1ccc(F)nc1` [Example 71], for which the “analgesic dose” value in [4] is 0.62 µmol/kg.
Take `Cl.Cl.Clc1ccc(OC[C@@H]2CCN2)cn1` [Example 19, 5-((2S)-Azetidinylmethyloxy)-2-chloropyridine dihydrochloride]: the Ki in data set [5] came to 0.04 nM. The Ki in data set [6] came out at 1300 nM. Moreover, the “MED Chung model (μmol/kg, i.p.)” value in data set [7] was determined as 0.3 µmol/kg. Further, in data set [8], the “MED Hot plate model (μmol/kg, i.p.)” value turned out to be 0.62 µmol/kg. The “less potent as a neuroprotectant in spinal cord” value in [1] (relative to compound of Example 4) is recorded as 10 fold. In addition, in data set [2], the “Increase in Diastolic Blood Pressure (mm Hg)” value is 67.3 ± 3.2 mm Hg and the “Increase in Heart Rate (beats/min)” value stood at 26.0 ± 7.8 beats/min. For the same compound, the “IMR-32 % maximal nicotine response at 1 μM Cmpd conc'n” value (“IMR-32 % maximal nicotine response” for short) in [9] amounted to 173%.
In the case of `COc1ccc(OC(=O)N2CC[C@@H]2COc2ccc(F)nc2)cc1` [Example 81], the “analgesic dose” value in data set [4] was found to be 0.62 µmol/kg.
`O=C(N1CCCC1)N1CC[C@@H]1COc1ccc(F)nc1` [Example 92]: the “analgesic dose” value in [4] is above 6.2 µmol/kg.
Turning to `C[C@H](NC(=O)OC(C)(C)C)C(=O)N1CC[C@@H]1COc1ccc(F)nc1` [Example 54], the “analgesic dose” value in data set [4] is above 6.2 µmol/kg.
Regarding `Clc1ncc(OC[C@H]2CCN2)cc1Br` [Example 18, 5-((2R)-azetidinylmethoxy)-3-bromo-2-chloropyridine hydrochloride], the Ki in data set [5] was 0.02 nM. Also, in [8], the minimal effective dose is 0.62 µmol/kg. The “IMR-32 % maximal nicotine response” value in data set [9] was found to be 93%.
Turning to `Fc1cncc(OC[C@H]2CCN2)c1` [Example 11, 5-((2R)-Azetidinylmethyloxy)-3-fluoropyridine dibenzoate], the Ki in data set [5] is 0.34 nM. Further, the “MED Hot plate model (μmol/kg, i.p.)” value in data set [8] was “NS”. Besides, in data set [9], the “IMR-32 % maximal nicotine response” value turned out to be 31%.
In the case of `Fc1cncc(OC[C@@H]2CCN2)c1` [Example 10, 5-((2S)-Azetidinylmethyloxy)-3-fluoropyridine dihydrochloride], the Ki in [5] is 0.09 nM. The “MED Chung model (μmol/kg, i.p.)” value in data set [7] was found to be 0.62 µmol/kg. In addition, the minimal effective dose in data set [8] was found to be 6.2 µmol/kg. Moreover, the “IMR-32 % maximal nicotine response” value in data set [9] was determined as 28%.
Take `Clc1cc(OC[C@H]2CCN2)cnc1Cl` [Example 16, 5-((2R)-azetidinylmethoxy)-2,3-dichloropyridine hydrochloride]: in [5], the Ki was 0.06 nM. In [7], the “MED Chung model (μmol/kg, i.p.)” value stood at 0.19 µmol/kg. Further, the minimal effective dose in data set [8] came out at 6.2 µmol/kg. Moreover, the “IMR-32 % maximal nicotine response” value in [9] came to 85%.
`C[C@]12N[C@H](Cc3ccccc31)c1ccccc12` [MK-801]: the “block of Glu-induced toxicity” value in [1] (Glu 300 μM, MK-801 1 μM) is “blocked”. For the same compound, the “block of SP-induced toxicity” value in data set [1] is “cannot prevent”.
With `Clc1cc(OC[C@@H]2CCN2)cnc1Cl` [Example 15, 5-((2S)-azetidinylmethoxy)-2,3-dichloropyridine hydrochloride], the Ki in data set [5] worked out at 0.02 nM. Also, the “MED Chung model (μmol/kg, i.p.)” value in data set [7] is given as “NS”. Further, in [8], the minimal effective dose was found to be 1.9 µmol/kg. Further, the “IMR-32 % maximal nicotine response” value in [9] is 117%.
For `CC1(C)CC(=O)C=C(N2CC[C@@H]2COc2ccc(F)nc2)C1` [Example 75], the “analgesic dose” value in [4] worked out at 6.2 µmol/kg.
Consider `O=C(Oc1ccc([N+](=O)[O-])cc1)N1CC[C@@H]1COc1ccc(F)nc1` [Example 80], for which the “analgesic dose” value in [4] amounted to 0.62 µmol/kg.
For the compound α-bungarotoxin, the “block of the neuroprotective effect” value in data set [1] is listed as “blocked”.
`Cl.Fc1ncccc1OC[C@@H]1CCN1` [Example 122, 2-Fluoro-3-(2(S)-azetidinylmethoxy)pyridine hydrochloride]: in [7], the “MED Chung model (μmol/kg, i.p.)” value turned out to be 1.9 µmol/kg.
On to `O=C(Oc1ccccc1)N1CC[C@@H]1COc1ccc(F)nc1` [Example 79], for which the “analgesic dose” value in [4] was determined as 0.62 µmol/kg.
Take `Cc1cncc(OC[C@H]2CCN2)c1` [Example 14, 5-Methyl-3-((2R)-azetidinylmethyloxy)pyridine hydrochloride]: the Ki in [5] was determined as 0.18 nM. Further, the minimal effective dose in data set [8] stood at 62 µmol/kg. Besides, in data set [9], the “IMR-32 % maximal nicotine response” value came to 15%.
As for `Clc1ncc(OC[C@@H]2CCN2)cc1Br` [Example 17, 5-((2S)-azetidinylmethoxy)-3-bromo-2-chloropyridine hydrochloride], the Ki in [5] stood at 0.02 nM. The “MED Chung model (μmol/kg, i.p.)” value in data set [7] turned out to be 0.19 µmol/kg. For the same compound, the minimal effective dose in data set [8] turned out to be 1.9 µmol/kg. In addition, in data set [9], the “IMR-32 % maximal nicotine response” value is on record as 120%.
With `O=C(CCSSCCC(=O)N1CC[C@@H]1COc1ccc(F)nc1)N1CC[C@@H]1COc1ccc(F)nc1` [Example 95], the “analgesic dose” value in data set [4] was above 6.2 µmol/kg.
Still for that read-out and setting: the same measure for `O=C1c2ccccc2C(=O)N1CN1CC[C@@H]1COc1ccc(F)nc1` [Example 72]: 0.62 µmol/kg.
Take `CCN1C[C@]2(COC(=O)c3ccccc3N3C(=O)C[C@H](C)C3=O)CC[C@H](OC)[C@@]34[C@@H]5C[C@H]6[C@H](OC)[C@@H]5[C@](O)(C[C@@H]6OC)[C@@](O)([C@@H](OC)[C@H]23)[C@@H]14` [methyllycaconitine]: the “block of the neuroprotective effect” value in [1] (setting [10]) is “blocked”.
